Assay results: patent US10189854B2, “Substituted pyrimidine compounds” (Grünenthal GmbH, priority 2014, dated 2019)

Biological target: human PDE4B1 (Homo sapiens (Human), UniProt Q07343)
Assay: cAMP HTRF assay to determine the activity of hPDE4B1
Format: biochemical
Conditions: IC50 inhibition of PDE4B; human recombinant PDE4B1, cAMP HTRF assay
Procedure, shortened: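 Recombinant human PDE4B1 expressed in Sf9 cells (4.8 U) was incubated with 40 nM cAMP for 30 min at room temperature in Tris buffer, pH 7.8, with MgCl2, DTT and Tween 20. HTRF detection of remaining cAMP followed, with 1 mM IBMX stop, read 60 min later as the 665/620 nm ratio. Results are % inhibition versus control.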

Sequence of human PDE4B1 (Q07343 whole entry): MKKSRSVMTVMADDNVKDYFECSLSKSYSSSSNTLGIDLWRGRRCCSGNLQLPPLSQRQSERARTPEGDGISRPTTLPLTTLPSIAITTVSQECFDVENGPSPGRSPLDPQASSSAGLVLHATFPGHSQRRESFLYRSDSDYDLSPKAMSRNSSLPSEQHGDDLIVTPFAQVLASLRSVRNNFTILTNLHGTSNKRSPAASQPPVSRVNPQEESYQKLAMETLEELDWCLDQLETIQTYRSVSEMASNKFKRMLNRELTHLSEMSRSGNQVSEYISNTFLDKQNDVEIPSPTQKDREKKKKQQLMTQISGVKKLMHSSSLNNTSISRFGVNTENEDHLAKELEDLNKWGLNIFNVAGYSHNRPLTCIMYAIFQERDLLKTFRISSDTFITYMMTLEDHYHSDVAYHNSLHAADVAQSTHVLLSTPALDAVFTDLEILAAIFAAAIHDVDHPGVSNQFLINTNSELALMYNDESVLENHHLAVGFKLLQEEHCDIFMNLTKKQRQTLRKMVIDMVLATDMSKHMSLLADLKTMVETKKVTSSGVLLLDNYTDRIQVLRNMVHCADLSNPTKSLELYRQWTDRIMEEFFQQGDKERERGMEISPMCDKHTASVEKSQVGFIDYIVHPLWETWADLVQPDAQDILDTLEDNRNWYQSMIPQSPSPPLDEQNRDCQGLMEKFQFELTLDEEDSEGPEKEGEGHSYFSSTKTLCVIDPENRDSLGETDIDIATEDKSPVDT

Row | IC50 | Compound
1 | < 0.1 µM | CN1CCN(C(=O)c2ccc3c(c2)N(c2ncc(-c4ccccc4F)cn2)CC32CC2)CC1 [Compound 60, [1-[5-(2-Fluorophenyl)-pyrimidin-2-yl]-spiro[1,2-dihydro-indole-3,1′-cyclopropane]-6-yl]-(4-methyl-piperazin-1-yl)-methanone]
2 | < 0.1 µM | CN(CCO)C(=O)c1ccc2c(c1)N(c1ncc(-c3cccc(F)c3)cn1)CC21CC1 [Compound 129, 1-[5-(3-Fluorophenyl)-pyrimidin-2-yl]-N-(2-hydroxy-ethyl)-N-methyl-spiro[1,2-dihydro-indole-3,1′-cyclopropane]-6-carboxylic acid amide]
3 | < 0.1 µM | COc1ccnc(-c2cnc(N3CC4(CC4)c4ccc(C(=O)N5CCOCC5)cc43)nc2)c1 [Compound 182, [1-[5-(4-Methoxy-pyridin-2-yl)-pyrimidin-2-yl]-spiro[1,2-dihdyro-indole-3,1′-cyclopropane]-6-yl]-morpholin-4-yl-methanone]
4 | < 0.1 µM | O=C(c1ccc2c(c1)N(c1ncc(-c3ccc(CO)s3)cn1)CC21CC1)N1CCOCC1 [Compound 149, [1-[5-[5-(Hydroxymethyl)-thiophen-2-yl]-pyrimidin-2-yl]-spiro[1,2-dihydro-indole-3,1′-cyclopropane]-6-yl]-morpholin-4-yl-methanone]
5 | < 0.1 µM | O=C(c1ccc2c(c1)N(c1ncc(-c3ccc(F)s3)cn1)CC21CC1)N1CCOCC1 [Compound 148, [1-[5-(5-Fluoro-thiophen-2-yl)-pyrimidin-2-yl]-spiro[1,2-dihydro-indole-3,1′-cyclopropane]-6-yl]-morpholin-4-yl-methanone]
6 | 0.1 to 1 µM | O=C(c1ccc2c(c1)N(c1ncc(-c3sccc3Cl)cn1)CC21CC1)N1CCOCC1 [Compound 133, [1-[5-(3-Chloro-thiophen-2-yl)-pyrimidin-2-yl]-spiro[1,2-dihydro-indole-3,1′-cyclopropane]-6-yl]-morpholin-4-yl-methanone]
7 | 0.1 to 1 µM | 4-[1-(5-Phenyl-pyrimidin-2-yl)-spiro[1,2-dihydro-indole-3,1′-cyclopropane]-6-carbonyl]-piperazine-2,6-dione [Compound 202]
8 | 0.1 to 1 µM | CN(CC1OCCO1)C(=O)c1ccc2c(c1)N(c1ncc(-c3ccccc3F)cn1)CC21CC1 [Compound 87, N-([1,3]Dioxolan-2-yl-methyl)-1-[5-(2-fluorophenyl)-pyrimidin-2-yl]-N-methyl-spiro[1,2-dihydro-indole-3,1′-cyclopropane]-6-carboxylic acid amide]
9 | < 0.1 µM | COc1cccc(-c2cnc(N3CC4(CC4)c4ccc(C(=O)N5CCOCC5)cc43)nc2)c1 [Compound 48, [1-[5-(3-Methoxyphenyl)-pyrimidin-2-yl]-spiro[1,2-dihydro-indole-3,1′-cyclopropane]-6-yl]-morpholin-4-yl-methanone]
10 | < 0.1 µM | CN(CCO)C(=O)c1ccc2c(c1)N(c1ncc(-c3cc(F)cc(F)c3)cn1)CC21CC1 [Compound 126, 1-[5-(3,5-Difluoro-phenyl)-pyrimidin-2-yl]-N-(2-hydroxy-ethyl)-N-methyl-spiro[1,2-dihydro-indole-3,1′-cyclopropane]-6-carboxylic acid amide]
11 | 0.1 to 1 µM | CCN(CC)C(=O)c1ccc2c(c1)N(c1ncc(-c3ccccc3F)cn1)CC21CC1 [Compound 47, N,N-Diethyl-1-[5-(2-fluorophenyl)-pyrimidin-2-yl]-spiro[1,2-dihydro-indole-3,1′-cyclopropane]-6-carboxylic acid amide]
12 | < 0.1 µM | COc1ccccc1-c1cnc(N2CC3(CC3)c3ccc(C(=O)N4CCOCC4)cc32)nc1 [Compound 31, [1-[5-(2-Methoxyphenyl)-pyrimidin-2-yl]-spiro[1,2-dihydro-indole-3,1′-cyclopropane]-6-yl]-morpholin-4-yl-methanone]
13 | < 0.1 µM | Cn1ccc(-c2cnc(N3CC4(CC4)c4ccc(C(=O)N5CCOCC5)cc43)nc2)n1 [Compound 137, [1-[5-(1-Methyl-1H-pyrazol-3-yl)-pyrimidin-2-yl]-spiro[1,2-dihydro-indole-3,1′-cyclopropane]-6-yl]-morpholin-4-yl-methanone]
14 | 1 to 10 µM | O=C(c1ccc2c(c1)N(c1ncc(-c3c(F)cccc3C(F)(F)F)cn1)CC21CC1)N1CCOCC1 [Compound 24, [1-[5-[2-Fluoro-6-(trifluoromethyl)-phenyl]-pyrimidin-2-yl]-spiro[1,2-dihydro-indole-3,1′-cyclopropane]-6-yl]-morpholin-4-yl-methanone]
15 | 0.1 to 1 µM | O=C(c1ccc2c(c1)N(c1ncc(Cc3ccccc3F)cn1)CC21CC1)N1CCOCC1 [Compound 178, [1-[5-[(2-Fluorophenyl)-methyl]-pyrimidin-2-yl]-spiro[1,2-dihydro-indole-3,1′-cyclopropane]-6-yl]-morpholin-4-yl-methanone]
16 | 0.1 to 1 µM | O=C(c1cc2c(cn1)C1(CC1)CN2c1ncc(-c2ccccc2F)cn1)N1CCOCC1 [Compound 168, [1-[5-(2-Fluorophenyl)-pyrimidin-2-yl]-spiro[1,2-dihydro-pyrrolo[3,2-c]pyridine-3,1′-cyclopropane]-6-yl]-morpholin-4-yl-methanone]
17 | < 0.1 µM | O=C(c1ccc2c(c1)N(c1ncc(-c3cccc(F)n3)cn1)CC21CC1)N1CCOCC1 [Compound 151, [1-[5-(6-Fluoro-pyridin-2-yl)-pyrimidin-2-yl]-spiro[1,2-dihydro-indole-3,1′-cyclopropane]-6-yl]-morpholin-4-yl-methanone]
18 | < 0.1 µM | O=C(c1ccc2c(c1)N(c1ncc(-c3ccnc(F)c3)cn1)CC21CC1)N1CCOCC1 [Compound 160, [1-[5-(2-Fluoro-pyridin-4-yl)-pyrimidin-2-yl]-spiro[1,2-dihydro-indole-3,1′-cyclopropane]-6-yl]-morpholin-4-yl-methanone]
19 | < 0.1 µM | N#Cc1csc(-c2cnc(N3CC4(CC4)c4ccc(C(=O)N5CCOCC5)cc43)nc2)c1 [Compound 161, 5-[2-[6-(Morpholine-4-carbonyl)-spiro[1,2-dihydro-indole-3,1′-cyclopropane]-1-yl]-pyrimidin-5-yl]-thiophene-3-carbonitrile]
20 | 0.1 to 1 µM | NC(=O)c1ccc(-c2cnc(N3CC4(CC4)c4ccc(C(=O)N5CCOCC5)cc43)nc2)s1 [Compound 152, 5-[2-[6-(Morpholine-4-carbonyl)-spiro[1,2-dihydro-indole-3,1′-cyclopropane]-1-yl]-pyrimidin-5-yl]-thiophene-2-carboxylic acid amide]
21 | < 0.1 µM | Cn1ccc(-c2cnc(N3CC4(CC4)c4ccc(C(=O)N5CCOCC5)cc43)nc2)c1 [Compound 136, [1-[5-(1-Methyl-1H-pyrrol-3-yl)-pyrimidin-2-yl]-spiro[1,2-dihydro-indole-3,1′-cyclopropane]-6-yl]-morpholin-4-yl-methanone]
22 | 0.1 to 1 µM | O=C(c1ccc2c(c1)N(c1ncc(-c3ccccc3F)cn1)CC21CC1)N1CC(O)C1 [Compound 36, [1-[5-(2-Fluorophenyl)-pyrimidin-2-yl]-spiro[1,2-dihydro-indole-3,1′-cyclopropane]-6-yl]-(3-hydroxy-azetidin-1-yl)-methanone]

Row | Compound | IC50
23 | [1-[5-(2-Fluorophenyl)-pyrimidin-2-yl]-spiro[1,2-dihydro-pyrrolo[2,3-b]pyridine-3,1′-cyclobutane]-6-yl]-morpholin-4-yl-methanone [Compound 171] | 0.1 to 1 µM
